These results are taken from patent publication US20180055915A1, “COMPOSITIONS AND METHODS FOR TREATING PROSTATE CANCER” (UNIVERSITY OF ROCHESTER, priority 2016, published 2018).

What all share (format): cell-based
The target of one assay is T1, ARv7 (Homo sapiens, UniProt P10275).
T1 construct: endogenous in cells; host or cells: EnzR1 C4-2, EnzR3 C4-2B, EnzR2 CWR22Rv1
T1 sequence (P10275 1-644 isoform P10275-3): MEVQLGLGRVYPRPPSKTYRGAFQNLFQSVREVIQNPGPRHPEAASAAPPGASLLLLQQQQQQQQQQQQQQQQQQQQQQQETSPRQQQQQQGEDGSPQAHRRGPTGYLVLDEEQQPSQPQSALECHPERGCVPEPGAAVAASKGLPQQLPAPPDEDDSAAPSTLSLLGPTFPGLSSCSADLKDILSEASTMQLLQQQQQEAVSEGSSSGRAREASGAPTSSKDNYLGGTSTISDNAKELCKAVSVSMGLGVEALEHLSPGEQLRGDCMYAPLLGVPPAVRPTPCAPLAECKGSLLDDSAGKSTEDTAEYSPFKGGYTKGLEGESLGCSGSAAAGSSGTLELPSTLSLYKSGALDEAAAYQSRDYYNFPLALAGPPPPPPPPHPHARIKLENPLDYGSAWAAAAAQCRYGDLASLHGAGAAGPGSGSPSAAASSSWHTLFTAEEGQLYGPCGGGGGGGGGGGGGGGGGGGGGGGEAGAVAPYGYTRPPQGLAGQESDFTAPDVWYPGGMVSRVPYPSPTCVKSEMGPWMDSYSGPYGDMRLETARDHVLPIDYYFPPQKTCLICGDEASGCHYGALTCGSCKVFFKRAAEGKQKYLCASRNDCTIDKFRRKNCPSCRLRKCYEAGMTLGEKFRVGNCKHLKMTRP
The assay is described as follows: ARv7 protein expression/degradation in CRPC cells (western blot). The protocol: To further dissect the mechanism(s) why Cis can decrease ARv7 (and AR) protein expression, first assayed was the Cis effects on ARv7 (and AR) protein stability with protein biosynthesis inhibitor, cycloheximide (CHX) and proteasome inhibitor MG132 in EnzR2-CWR22Rv1 cells.
For protein degradation, EnzR C4-2 cells were treated with 1 μg/mL Cisplatin for 6 hr. Cycloheximide or MG132 was added for another 4 hrs. For ubiquitination, human kidney epithelial HEK293T cells were grown in DMEM media with 10% FCS. Cells were plated at ˜60% confluency and pGFP-ubiquitin, pAR were transiently transfected into cells using CaCl2 reagent. After 48 hrs. of transfection, cells were treated with 1 μg/mL Cisplatin for 6 hrs. […], MG132, was added for another 4 hrs. Cell extracts were analyzed for AR degradation or AR-ubiquitination by using western blot.
(§1) Cells were lysed in lysis buffer and proteins (50 μg) were separated on 10% SDS/PAGE gel and then transferred onto PVDF membranes (Millipore, Billerica, Mass.). After blocking membranes with 5% milk, they were incubated with appropriate dilutions of specific primary antibodies (anti-AR (N-20), anti-SF2, anti-GFP, anti-GAPDH, anti-a-tubulin). The blots were incubated with HRP-conjugated secondary antibodies and visualized using ECL system (Thermo Fisher Scientific, Rochester, N.Y.).
(A western blot detects proteins with antibodies after separation by electrophoresis.)

In assay [1] the test system is glucocorticoid receptor (GR). The assay is described as follows: Glucocorticoid receptor expression.
Another assay addresses T2, AR mutant AR876 (Homo sapiens, UniProt P10275, F877L).
T2 construct: expressed in transfected cells; host or cells: PC3
T2 sequence (P10275 1-920 F877L): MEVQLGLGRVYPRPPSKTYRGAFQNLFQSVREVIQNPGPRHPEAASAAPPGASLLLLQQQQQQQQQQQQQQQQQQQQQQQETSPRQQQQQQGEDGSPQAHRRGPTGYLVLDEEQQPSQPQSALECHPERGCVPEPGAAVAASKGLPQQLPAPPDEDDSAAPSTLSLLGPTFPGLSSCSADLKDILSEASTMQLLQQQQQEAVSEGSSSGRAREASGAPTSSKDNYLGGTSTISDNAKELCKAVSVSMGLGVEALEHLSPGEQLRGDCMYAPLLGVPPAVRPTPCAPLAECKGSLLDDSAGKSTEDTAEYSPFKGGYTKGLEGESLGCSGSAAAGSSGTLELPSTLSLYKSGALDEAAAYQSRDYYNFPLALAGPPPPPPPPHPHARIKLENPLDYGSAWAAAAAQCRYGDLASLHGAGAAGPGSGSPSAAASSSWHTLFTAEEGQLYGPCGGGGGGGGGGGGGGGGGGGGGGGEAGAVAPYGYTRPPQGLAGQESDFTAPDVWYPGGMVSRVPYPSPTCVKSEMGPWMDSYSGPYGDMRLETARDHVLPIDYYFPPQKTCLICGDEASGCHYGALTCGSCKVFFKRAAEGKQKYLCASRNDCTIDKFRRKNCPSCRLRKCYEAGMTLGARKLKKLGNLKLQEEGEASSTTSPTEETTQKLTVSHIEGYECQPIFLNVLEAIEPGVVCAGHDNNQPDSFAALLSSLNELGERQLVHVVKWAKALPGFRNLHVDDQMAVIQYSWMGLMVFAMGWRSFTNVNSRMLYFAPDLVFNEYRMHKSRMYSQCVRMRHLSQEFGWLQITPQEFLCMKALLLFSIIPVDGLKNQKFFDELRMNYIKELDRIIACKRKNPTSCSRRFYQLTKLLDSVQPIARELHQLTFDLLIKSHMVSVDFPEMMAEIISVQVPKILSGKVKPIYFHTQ
The assay is described as follows: AR876 expression in PC3 cells stably transfected with AR876-cDNA. As to conditions: FIG. 1G. The method, then:
as §1

The next assay concerns EnzR3-C4-2B cells. The assay is described as follows: MTT cell proliferation assay, EnzR3-C4-2B. As to conditions: FIG. 2H. The method, then:
(§2) Cells were seeded in 24-well plates (5×10^3 cells/500 μL media per well) and cultured for 0, 2, 4 and 6 days. Cells were harvested and cell numbers and absorbance were calculated and recorded after using yellow tetrazolium MTT (3-(4, 5-dimethylthiazolyl-2)-2,5-diphenyltetrazolium bromide agent.
On the technique in general: Formazan colour is commonly taken as a measure of viable cells.

Another assay relates to Enz-S1-C4-2 cells. The assay is described as follows: Enz sensitivity after 2 months treatment (MTT proliferation). As to conditions: after 10 uM Enz plus 0.2 ug/mL (0.66 uM) Cis for 2 months, FIG. 3C. The protocol:
as §2

The next assay relates to lncRNA RP11-473I1.9. Description: lncRNA RP11-473I1.9 expression (real-time PCR). The conditions noted are these: FIG. 4G. The method, then:
Total RNAs were isolated using Trizol reagent (Invitrogen, Grand Island, N.Y.). 2 μg of total RNA was subjected to reverse transcription using Superscript III transcriptase (Invitrogen). Quantitative real-time PCR (qRT-PCR) was conducted using a Bio-Rad CFX96 system with SYBR green to determine the mRNA expression level of a gene of interest. Expression levels were normalized to the expression of GAPDH.

What is called IC50 is the midpoint of a concentration-inhibition curve. On to “(SP-4-2)-diamminedichloroplatinum(II) [Cis]”, for which the “ARv7 (and AR877) degradation” value at ARv7 (CWR22Rv1 cells, Cis plus CHX compared to CHX alone, FIG. 4C) is on record as “can facilitate ARv7 (and AR877) degradation”. Moreover, the ARv7 expression result at ARv7 (EnzR1-C4-2 cells, increasing Cis, FIG. 1B) was “diminishing ARv7 was detected upon increasing Cis”. For the same substance, on ARv7 (EnzR2-CWR22Rv1 cells, after 6 hrs treatment, FIG. 4A), the ARv7 protein degradation entry was “could degrade ARv7 (and AR)”. Moreover, the GR expression entry in assay [1] is “little effect to decrease”. In addition, the AR876 expression result at AR mutant AR876 is “can also decrease”. In the assay with EnzR3-C4-2B cells, the “IC50 (cell growth)” value amounted to 3.3 µg/mL. For the same substance, the IC50 with EnzR3-C4-2B cells (read-out: IC50 (cell growth)) is 10.9 µM. Also, the Enz sensitivity with Enz-S1-C4-2 cells stood at 62%. Moreover, in the assay with lncRNA RP11-473I1.9, the “lncRNA RP11-473I1.9 expression” value is “little effect”.
